Measured values from patent US20250073358A1, “AROMATIC VINYL COMPOUND, METAL COMPLEX THEREOF, AND PREPARATION METHOD THEREFOR AND USE THEREOF” (SHANGHAI MAXINOVEL PHARMACEUTICALS CO., LTD., priority 2021, published 2025).

Experiments:
[1] = test system: MC38-PDL1 tumor (MC-38-hPD-L1 cells); assay: Tumor targeting study in Micro-PET/CT scanning, bilateral tumor model (Effect Embodiment 4), left tumor; format: in vivo, C57BL/6J mice; settings: Micro-PET/CT imaging, bilateral tumor mice
Procedure: • Tumor targeting study of compound 80 in Micro-PET/CT scanning • Experimental animal information: C57BL/6J mice, SPF grade; 15-21 g; • Construction of Bilateral Tumor Model Mice: • Cell Culture
(§1) Human-derived PD-L1 gene knock-in MC-38 cells (MC-38-hPD-L1 cells) were adherently cultured in vitro, and the culture conditions were DMEM medium plus 10% heat-inactivated fetal bovine serum and hygromycinB (final concentration was […]), and the cells were cultured at 37° C. with 5% CO2. Subculture of 2-3 times a week. When the cells were in the exponential growth phase, the cells were harvested, counted, and the left side of the mice was inoculated subcutaneously.
(§2) Mouse-derived MC-38 cells were adherently cultured in vitro, and the culture conditions were DMEM medium plus 10% heat-inactivated fetal bovine serum, and the cells were cultured at 37° C. with 5% CO2. Subculture of 2-3 times a week. When the cells were in the exponential growth phase, the cells were collected, counted, and the right side of the mice was inoculated subcutaneously.
(§3) 100 μL of 1×10^6 MC-38-hPD-L1 cell suspension was inoculated subcutaneously on the left dorsal side of C57BL/6J mice. The same mice were subcutaneously inoculated with 100 μL of 1×10^6 MC-38 cell suspension on the right dorsal side on the second day. After inoculation, the mice were fed normally, and after a certain number of days, tumor-bearing mice with the volume of bilateral transplanted tumor in the range of 150 mm^3−350 mm^3 were selected for test.
(§4) After quality control, compound 80 was diluted with 10% ethanol in physiological saline, and the drug was extracted and injected into each animal through tail vein. The administration volume was 100 μL/animal, and the administration dose was 100-200 μCi/animal. The study of Micro-PET/CT imaging was performed at 0.5 h, 1.5 h, 2.5 h, 3.5 h after injection of compound 80.

[2] = target: PD-1/PD-L1 (Homo sapiens (Human), UniProt Q9NZQ7); assay: Homogenouse Time-Resolved Fluorescence (HTRF) binding assay, PD-1/PD-L1
Procedure: Homogenouse Time-Resolved Fluorescence (HTRF) binding assay was used to detect the binding ability of the compound of the present disclosure to PD-1/PD-L1.
The purchased kit (CisBio, #64CUS000C-1) contains reagents required for experiments such as PD-1, PD-L1, anti-tag1-Eu, Anti-tag2-XL665, Dilute Buffer, and Detection Buffer.
• 1. The compound was configured with 100% DMSO into 10 concentrations with a concentration gradient of 3 times. • 2. The DMSO solution of the compound was added to Dilute Buffer solution, and the mixture was mixed well and transferred to a 96-well plate. • 3. PD-L1 was diluted with Dilute Buffer solution and then added to the above 96-well plate. • 4. PD-1 was diluted with Dilute Buffer solution and then added to the above 96-well plate, and incubated at room temperature for 30 minutes. • 5. One part of anti-tag1-Eu and one part of Anti-tag2-XL665 were added to Detection Buffer solution, and the mixture was mixed well and transferred to the above 96-well plate. • 6. The mixture in the 96-well plate was incubated at room temperature for 1 to 24 hours. • 7. The HTRF values were read with Envision.

[3] = test system: tumor; assay: Inhibitory effect on tumor in tumor-bearing mice; format: in vivo, C57/BL6 mice; settings: tail vein injection, 45 MBq per mouse, compared with the control group (PBS)
Text: • 1. Inhibitory effect of compound 78 on tumor • 1.1 Experimental animal information: tumor-bearing C57/BL6 mice; SPF grade; weight range: 17-20 g; Shanghai Qi'up Biomedical Technology Co., Ltd. • 1.2 Experimental process
Ten tumor-bearing mice with tumor volumes of 10-100 mm^3 were systematically and randomly divided into 2 groups according to tumor size, with 5 mice in each group, corresponding to PBS and compound 78 respectively. After anesthesia with isoflurane, tumor-bearing mice were injected into the tail vein with compound 78 with 45 MBq (approximately 1.2 mCi) per mouse and a volume of 0.2 mL. After administration, the tumor size and weight of the animals were measured periodically, and the tumor growth curve was drawn to understand the inhibitory effect of the drug on tumor.

[4] = test system: MC38-PDL1 tumor (MC-38-hPD-L1 cells); assay: Tumor targeting study in Micro-PET/CT scanning, bilateral tumor model (Effect Embodiment 3), left tumor; format: in vivo, C57BL/6J mice; settings: Micro-PET/CT imaging, bilateral tumor mice
Text: Tumor targeting study of compound 79 in Micro-PET/CT scanning 1. Experimental animal information: C57BL/6J mice, SPF grade; 15-21 g; model mouse construction: bilateral tumor • Construction of bilateral tumor model mice • Cell culture
as §1, §2, §3
as §4, with “79” for “80”, “79.” for “80.”

Sequence of PD-1/PD-L1 (Q9NZQ7 19-238): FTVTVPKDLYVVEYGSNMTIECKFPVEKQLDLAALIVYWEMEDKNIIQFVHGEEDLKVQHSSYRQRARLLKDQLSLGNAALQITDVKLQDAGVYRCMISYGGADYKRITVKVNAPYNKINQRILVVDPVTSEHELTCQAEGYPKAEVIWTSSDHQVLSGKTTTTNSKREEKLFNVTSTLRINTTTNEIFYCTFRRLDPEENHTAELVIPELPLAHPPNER

Structure (SMILES) | uptake value of left tumor (MC38-PDL1) compared with right tumor (MC38) [1] | IC50 [2] | uptake value of left tumor (MC38-PDL1) compared with right tumor (MC38) [4] | inhibition of tumor growth [3]
Cc1c(/C=C/c2cc(OCCOCCN3CCN(CC(=O)O)CCN(CC(=O)O)CCN(CC(=O)O)CC3)c(CN3CCCC[C@H]3C(=O)O)cc2C(F)(F)F)cccc1-c1ccccc1 [Compound 7] | significantly higher | 969 pM |  | 
Cc1c(/C=C/c2cc(OCCCCNC(=O)CN3CCN(CC(=O)O)CCN(CC(=O)O)CCN(CC(=O)O)CC3)c(CN3CCCC[C@H]3C(=O)O)cc2C(F)(F)F)cccc1-c1ccccc1 [Compound 8] | significantly higher | 522 pM |  | 
Cc1ccc(CCCC(=O)NCCCC[C@H](NC(=O)CN2CCN(CC(=O)O)CCN(CC(=O)O)CCN(CC(=O)O)CC2)C(=O)NCCCCCCOc2cc(/C=C/c3cccc(-c4ccccc4)c3C)c(C(F)(F)F)cc2CN2CCCC[C@H]2C(=O)O)cc1 [Compound 27] | significantly higher | 13600 pM |  | 
Cc1c(/C=C/c2cc(OCCCCCCNC(=O)CN3CCN(CC(=O)[O-])CCN(CC(=O)[O-])CCN(CC(=O)[O-])CC3)c(CN3CCCC[C@H]3C(=O)O)cc2C(F)(F)F)cccc1-c1ccccc1.[Ga+3] [Compound 28] | significantly higher | 562 pM |  | 
Cc1c(/C=C/c2cc(OCCNC(=O)C3CCC(CNC(=O)CN4CCN(CC(=O)O)CCN(CC(=O)O)CCN(CC(=O)O)CC4)CC3)c(CN3CCCC[C@H]3C(=O)O)cc2C(F)(F)F)cccc1-c1ccccc1 (stereo partly shown) [Compound 35] | significantly higher | 766 pM |  | 
Cc1c(/C=C/c2cc(OCCNC(=O)C3CCN(C(=O)CN4CCN(CC(=O)O)CCN(CC(=O)O)CCN(CC(=O)O)CC4)CC3)c(CN3CCCC[C@H]3C(=O)O)cc2C(F)(F)F)cccc1-c1ccccc1 [Compound 36] | significantly higher | 521 pM |  | 
Cc1c(/C=C/c2cc(OCC3CCN(C(=O)CN4CCN(CC(=O)O)CCN(CC(=O)O)CCN(CC(=O)O)CC4)CC3)c(CN3CCCC[C@H]3C(=O)O)cc2C(F)(F)F)cccc1-c1ccccc1 [Compound 37] | significantly higher | 729 pM |  | 
Cc1c(/C=C/c2cc(OCCNC(=O)C3CCN(C(=O)CN4CCN(CC(=O)O)CCN(CC(=O)O)CCN(CC(=O)O)CC4)CC3)c(CN3CCCC[C@H]3C(=O)O)cc2C(F)(F)F)cccc1-c1ccccc1 [Compound 38] |  | 1130 pM |  | very good therapeutic effects on inhibiting tumor growth
N#Cc1c(-c2ccccc2)ccnc1/C=C/c1cc(OCCCCCN2CCN(CC(=O)[O-])CCN(CC(=O)[O-])CC2)c(CN2CCCC[C@H]2C(=O)O)cc1C(F)(F)F.[Al+3].[F-] [Compound 58] |  |  | significantly higher | 
Cc1c(/C=C/c2cc(OCCCCNC(=O)CN3CCN(CC(=O)[O-])CCN(CC(=O)[O-])CC3)c(CN3CCCC[C@H]3C(=O)O)cc2C(F)(F)F)cccc1-c1ccccc1.[Al+3].[F-] [Compound 62] |  | 529 pM | significantly higher | 
COc1cc(C(=O)Nc2cccc(-c3cccc(/C=C/c4cc(OCCOCCN5CCN6CCN(CC5)CC(=O)[O][Al]([F])[O]C(=O)C6)c(CN5CCCC[C@H]5C(=O)O)cc4C(F)(F)F)c3C)c2C)ncc1CN1CCCC[C@H]1C(=O)O [Compound 82] |  |  | significantly higher | 

More lines, main results first:

uptake value of left tumor (MC38-PDL1) compared with right tumor (MC38) [1] | IC50 [2] | uptake value of left tumor (MC38-PDL1) compared with right tumor (MC38) [4] | Structure (SMILES) | inhibition of tumor growth [3]
 |  | significantly higher | N#Cc1c(-c2ccccc2)ccnc1/C=C/c1cc(OCC2CCN(C(=O)CN3CCN(CC(=O)[O-])CCN(CC(=O)[O-])CC3)CC2)c(CN2CCCC[C@H]2C(=O)O)cc1C(F)(F)F.[Al+3].[F-] [Compound 60] | 
 | 700 pM | significantly higher | Cc1c(/C=C/c2cc(OCCCNC(=O)CN3CCN(CC(=O)O)CCN(CC(=O)O)CC3)c(CN3CCCC[C@H]3C(=O)O)cc2C(F)(F)F)cccc1-c1ccccc1 [Compound 64] | 
 | 47700 pM |  | Cc1c(/C=C/c2cc(OCCOCCN3CCN(CC(=O)O)CCN(CC(=O)O)CCN(CC(=O)O)CC3)c(CN3CCCC[C@@H]3C(=O)O)cc2C(F)(F)F)cccc1-c1ccccc1 [Compound 70] | very good therapeutic effects on inhibiting tumor growth
 | 112000 pM |  | Cc1cc(CN2CCCC[C@H]2C(=O)O)c(OCCCCCN2CCN(CC(=O)O)CCN(CC(=O)O)CCN(CC(=O)O)CC2)cc1/C=C/c1cccc(-c2ccccc2)c1C [Compound 72] | very good therapeutic effects on inhibiting tumor growth
significantly higher |  |  | Cc1c(/C=C/c2cc(OCCOCCN3CCN(CC(=O)[O-])CCN(CC(=O)[O-])CCN(CC(=O)[O-])CC3)c(CN3CCCC[C@H]3C(=O)O)cc2C(F)(F)F)cccc1-c1ccccc1.[68Ga+3] [Compound 75] | 
